Experimental data as given in patent US20170190671A1, “BIS(ARYL)CATECHOL DERIVATIVES AS HERBICIDES” (E I DU PONT DE NEMOURS AND COMPANY, priority 2014, published 2017).

Experiments:
Assay type in all cases: in vivo
[1] = system: Italian ryegrass (Lolium multiflorum); assay: Test C preemergence; conditions: Lolium multiflorum, pre-emergence, 336 h, scale 0 to 100, read-out: Plant response rating, Ryegrass, Italian
Method in brief: (§1)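 Visual ratings (0 none to 100 complete control) were made 13 to 15 days after treatment, relative to controls. Test chemicals, formulated in a non-phytotoxic solvent mixture with surfactant, were applied in the greenhouse preemergence to seeded loam-sand soil or postemergence to plants 2 to 18 cm tall.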

[2] = system: barnyardgrass (Echinochloa crus-galli); assay: Test C preemergence; conditions: Echinochloa crus-galli, pre-emergence, read-out: Plant response rating, Barnyardgrass
Method in brief: as §1

[3] = system: blackgrass (Alopecurus myosuroides); assay: Test C preemergence; conditions: Alopecurus myosuroides, pre-emergence, 336 h, scale 0 to 100, read-out: Plant response rating, Blackgrass
Method in brief: as §1

[4] = system: corn (Zea mays); assay: Test C preemergence; conditions: Zea mays, pre-emergence, 336 h, scale 0 to 100
Method in brief: as §1

[5] = system: giant foxtail (Setaria faberii); assay: Test C preemergence; conditions: Setaria faberi, pre-emergence, 336 h, scale 0 to 100, read-out: Plant response rating, Foxtail, Giant
Method in brief: as §1

[6] = system: johnsongrass (Sorghum halepense); assay: Test C preemergence; conditions: Sorghum halepense, pre-emergence, 336 h, scale 0 to 100, read-out: Plant response rating, Johnsongrass
Method in brief: as §1

[7] = system: lambsquarters (Chenopodium album); assay: Test C preemergence; conditions: Chenopodium album, pre-emergence, 336 h, scale 0 to 100, read-out: Plant response rating, Lambsquarters
Method in brief: as §1

[8] = system: large (Lg) crabgrass (Digitaria sanguinalis); assay: Test C preemergence; conditions: Digitaria sanguinalis, pre-emergence, 336 h, scale 0 to 100, read-out: Plant response rating, Crabgrass, Large
Method in brief: as §1

[9] = system: pigweed (Amaranthus retroflexus); assay: Test C preemergence; conditions: Amaranthus retroflexus, pre-emergence, 336 h, scale 0 to 100, read-out: Plant response rating, Pigweed
Method in brief: as §1

[10] = system: ragweed (common ragweed, Ambrosia elatior); assay: Test C preemergence; conditions: Ambrosia artemisiifolia, pre-emergence, 336 h, scale 0 to 100, read-out: Plant response rating, Ragweed
Method in brief: as §1

[11] = system: soybean (Glycine max); assay: Test C preemergence; conditions: Glycine max, pre-emergence, scale 0 to 100, read-out: Plant response rating, Soybean
Method in brief: as §1

[12] = system: velvetleaf (Abutilon theophrasti); assay: Test C preemergence; conditions: Abutilon theophrasti, pre-emergence, scale 0 to 100, read-out: Plant response rating, Velvetleaf
Method in brief: as §1

[13] = system: winter wheat (Triticum aestivum); assay: Test C preemergence; conditions: Triticum aestivum, pre-emergence, 336 h, scale 0 to 100, read-out: Plant response rating, Wheat
Method in brief: as §1

[14] = system: yellow nutsedge (Cyperus esculentus); assay: Test C preemergence; conditions: Cyperus, pre-emergence, 336 h, scale 0 to 100, read-out: Plant response rating, Nutsedge, Yellow
Method in brief: as §1

[15] = system: large (Lg) crabgrass (Digitaria sanguinalis); assay: Test E preemergence; conditions: scale 0 to 100
Method in brief: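 Preemergence: seeds in silt loam treated with compound in non-phytotoxic solvent with surfactant. Postemergence: plants at 1- to 4-leaf stage (2–18 cm) in peat-based medium sprayed likewise. Greenhouse 14–21 days, then visual rating vs controls, 0 (no effect) to 100 (complete control).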

N#Cc1cccc(Oc2ncc(Cl)cn2)c1Oc1ncc(C(F)(F)F)cn1 [Compound 38, 3-[(5-chloro-2-pyrimidinyl)oxy]-2-[[5-(trifluoromethyl)-2-pyrimidinyl]oxy]-benzonitrile]
pest or weed control at 31 g/ha ([1]; 31 g ai/ha, preemergence): 10% | pest or weed control at 62 g/ha ([1]; 62 g ai/ha, preemergence): 60% | pest or weed control at 125 g/ha ([1]; 125 g ai/ha, preemergence): 90% | pest or weed control at 16 g/ha ([1]; Preemergence, 16 g ai/ha): 0% | pest or weed control at 31 g/ha ([2]; 31 g ai/ha, preemergence, scale 0 to 100): 85% | pest or weed control at 62 g/ha ([2]; 62 g ai/ha, preemergence, scale 0 to 100): 100% | pest or weed control at 125 g/ha ([2]; 125 g ai/ha, preemergence, scale 0 to 100): 100% | pest or weed control at 16 g/ha ([2]; Preemergence, 16 g ai/ha, scale 0 to 100 (0 no effect, 100 complete control)): 50% | pest or weed control at 31 g/ha ([3]; 31 g ai/ha, preemergence): 35% | pest or weed control at 62 g/ha ([3]; 62 g ai/ha, preemergence): 50% | pest or weed control at 125 g/ha ([3]; 125 g ai/ha, preemergence): 90% | pest or weed control at 16 g/ha ([3]; Preemergence, 16 g ai/ha): 0% | Corn plant response rating (crop injury, 0 = no effect, 100 = complete kill) at 31 g/ha ([4]; 31 g ai/ha, preemergence): 30% | Corn plant response rating (crop injury, 0 = no effect, 100 = complete kill) at 62 g/ha ([4]; 62 g ai/ha, preemergence): 45% | Corn plant response rating (crop injury, 0 = no effect, 100 = complete kill) at 125 g/ha ([4]; 125 g ai/ha, preemergence): 65% | Corn plant response rating (crop injury, 0 = no effect, 100 = complete kill) at 16 g/ha ([4]; Preemergence, 16 g ai/ha): 10% | pest or weed control at 31 g/ha ([5]; 31 g ai/ha, preemergence): 95% | pest or weed control at 62 g/ha ([5]; 62 g ai/ha, preemergence): 100% | pest or weed control at 125 g/ha ([5]; 125 g ai/ha, preemergence): 100% | pest or weed control at 16 g/ha ([5]; Preemergence, 16 g ai/ha): 85% | pest or weed control at 31 g/ha ([6]; 31 g ai/ha, preemergence): 85% | pest or weed control at 62 g/ha ([6]; 62 g ai/ha, preemergence): 85% | pest or weed control at 125 g/ha ([6]; 125 g ai/ha, preemergence): 100% | pest or weed control at 16 g/ha ([6]; Preemergence, 16 g ai/ha): 45% | pest or weed control at 31 g/ha ([7]; 31 g ai/ha, preemergence): 90% | pest or weed control at 62 g/ha ([7]; 62 g ai/ha, preemergence): 95% | pest or weed control at 125 g/ha ([7]; 125 g ai/ha, preemergence): 98% | pest or weed control at 16 g/ha ([7]; Preemergence, 16 g ai/ha): 85% | pest or weed control at 31 g/ha ([8]; 31 g ai/ha, preemergence): 100% | pest or weed control at 62 g/ha ([8]; 62 g ai/ha, preemergence): 100% | pest or weed control at 125 g/ha ([8]; 125 g ai/ha, preemergence): 100% | pest or weed control at 16 g/ha ([8]; Preemergence, 16 g ai/ha): 100% | pest or weed control at 31 g/ha ([9]; 31 g ai/ha, preemergence): 100% | pest or weed control at 62 g/ha ([9]; 62 g ai/ha, preemergence): 100% | pest or weed control at 125 g/ha ([9]; 125 g ai/ha, preemergence): 100% | pest or weed control at 16 g/ha ([9]; Preemergence, 16 g ai/ha): 100% | pest or weed control at 31 g/ha ([10]; 31 g ai/ha, preemergence): 25% | pest or weed control at 62 g/ha ([10]; 62 g ai/ha, preemergence): 75% | pest or weed control at 125 g/ha ([10]; 125 g ai/ha, preemergence): 90% | pest or weed control at 16 g/ha ([10]; Preemergence, 16 g ai/ha): 0% | plant injury at 31 g/ha ([11]; 31 g ai/ha, preemergence): 55% | plant injury at 62 g/ha ([11]; 62 g ai/ha, preemergence): 60% | plant injury at 125 g/ha ([11]; 125 g ai/ha, preemergence): 90% | plant injury at 16 g/ha ([11]; Preemergence, 16 g ai/ha): 20% | pest or weed control at 31 g/ha ([12]; 31 g ai/ha, preemergence): 90% | pest or weed control at 62 g/ha ([12]; 62 g ai/ha, preemergence): 98% | pest or weed control at 125 g/ha ([12]; 125 g ai/ha, preemergence): 100% | pest or weed control at 16 g/ha ([12]; Preemergence, 16 g ai/ha): 45% | plant injury at 31 g/ha ([13]; 31 g ai/ha, preemergence): 0% | plant injury at 62 g/ha ([13]; 62 g ai/ha, preemergence): 15% | plant injury at 125 g/ha ([13]; 125 g ai/ha, preemergence): 35% | plant injury at 16 g/ha ([13]; Preemergence, 16 g ai/ha): 0% | pest or weed control at 31 g/ha ([14]; 31 g ai/ha, preemergence): 20% | pest or weed control at 62 g/ha ([14]; 62 g ai/ha, preemergence): 70% | pest or weed control at 125 g/ha ([14]; 125 g ai/ha, preemergence): 85% | pest or weed control at 16 g/ha ([14]; Preemergence, 16 g ai/ha): 0% | Plant response rating, Crabgrass, Large ([15]; 16 g ai/ha): 50 | Plant response rating, Crabgrass, Large ([15]; 31 g ai/ha): 75 | Plant response rating, Crabgrass, Large ([15]; 62 g ai/ha): 100 | Plant response rating, Crabgrass, Large ([15]; 125 g ai/ha): 100
